Series [1] has as its system growing rats. The conditions noted are these: cited from earlier work; for trabecular bone volume in the proximal tibial metaphysis vs untreated rats: growing rats, ten days.
Series [2] has as its system rapidly growing rabbits. Nature of the series: Rabbit Schenk assay: distal femoral BMD by ex vivo DXA and histology after 10 days' treatment. The conditions noted are these: for DFBMD / % BMD gain / Distal femur BMD / DFBMD of representative DXA image / increase in DFBMD vs vehicle: 10 days; for DFBMD: dose-ranging study; for DFBMD / Distal femur BMD: mean ± SEM; for % BMD gain: vs vehicle; for DFBMD of representative DXA image: single representative femur. It is filed as in vivo. The protocol: To characterize the dose of ALN required to show increases in DFBMD, dose-ranging studies were conducted using ALN, administered at doses of 0, 50, 100, 200, and 500 μg/kg (SC, once daily). Seven-week-old rabbits were weight-randomized into groups (n = 8-11 per group). ALN was prepared in deionized water and pH adjusted to 7.2. The injection volume was 0.3 mL per rabbit. Rabbits were treated daily for 10 consecutive days. Rabbits were reweighed on Day 6 and dosing volume was adjusted accordingly. At necropsy, the right femur was excised and stored in 70% ethanol.
Rabbits were treated once daily by oral gavage for 10 consecutive days with vehicle (1% carboxymethylcellulose or 0.5%/0.2% carboxymethylcellulose/SDS), CatK inhibitors, or ALN (100 μg/kg, SC). Several studies were conducted, with each study including vehicle (n = 11–14), multiple dose levels of a CatK inhibitor (n = 13–14 per group), and ALN (n = 8–9). On Day 1, two rabbits from each group receiving CatK inhibitors were bled via the central ear artery (0.5 mL each) at 0, 0.25, 1, 3, 6, 8, and 24 h after dosing. Plasma concentrations of CatK inhibitors were determined in all samples. On Day 11, rabbits were euthanized. Femurs were removed and stored in 70% ethanol for BMD analysis.
Whole right femurs with muscles removed, were immersed in two inches of water in an acrylic box, and positioned with both distal condyles resting on the bottom of the box. The distal 5 cm of the femur was scanned using small animal software in high resolution mode on a Hologic QDR 4500 fan-beam bone densitometer (DXA; Hologic, Inc., Waltham, MA, USA). The distal 3 cm of the femur was analyzed. A region of interest (ROI) beginning one line distal to the distal edge of the femur and centered 70 lines wide and extending 60 lines proximally in the long axis of the bone was applied. Bone mineral content (BMC) and bone area (BAr) were output by DXA software. BMD was calculated as BMC/BAr.
Following ex vivo DXA scanning, the distal one-third of the femur was cut mid-sagitally and then dehydrated, without prior decalcification, in increasing concentrations of ethanol. The right portion was embedded in 80% methylmethacrylate/20% dibutyl phthalate. Parasagittal sections (6 μm) were cut on a Reichert-Jung Polycut sledge microtome (Nussloch, Germany) and mounted on glass slides. A Masson’s trichrome stain was performed to view calcified tissue.

For series [3], the system named is weanling rats. The conditions noted are these: six weeks of once-weekly treatment; cited from earlier work.
On the set-up of series [4]: method as in PMID 16302795, PMID 18226527. To be noted: rabbit, cited from earlier work; for Cmin / AUC / Cmax: oral; for Cmin: trough at 24 h.
The subject of series [5] is rabbit osteoclasts. Briefly: In vitro bone resorption assay, rabbit osteoclasts on bovine bone slices, CTx-I release. The format is cell-based. Here is the method: The bone resorption assay is a functional in vitro assay that measures Type-I collagen degradation after a three-day incubation of rabbit osteoclasts cultured on bovine bone with varying concentrations of test compound, as previously described. Briefly, long bones isolated from a 10-day-old NZW rabbit were finely minced in alpha-minimal essential medium (α-MEM) (Gibco BRL; Gaithersburg, MD, USA) containing penicillin/streptomycin, pH 7.1 to obtain a cell suspension and 1 × 10^6 cells were seeded onto each 6 mm diameter × 0.22 mm thick bovine bone slice in the same medium containing 2% fetal bovine serum (FBS). After 4 h, the medium was replaced with α-MEM, 2% FBS, 1,25(OH)2D3 10 nM, and test compounds. The cultures were incubated for three days at 37°C in 5% CO2. C-telopeptide of Type-I collagen (CTx-I) released into the medium was measured by the CROSSLAPS Elisa assay (Osteometer Biotech, Herlev, Denmark).

Series [6] deals with rabbit osteoclasts. Further details: method as in PMID 16302795, PMID 18226527. To be noted: three-day incubation, CTx-I release; read-out: IC50 Rabbit bone resorption assay; cited from earlier work.
Series [7] concerns rabbit CatK. To be noted: 2 μM Z-Leu-Arg-AMC as substrate; cited from earlier work.
Series [8] relates to human CatK. On the set-up: method as in PMID 19453281. The conditions noted are these: cited from earlier work.
The subject of series [9] is mouse CatK. On the set-up: method as in PMID 19453281. The conditions noted are these: cited from earlier work.
Series [10] deals with rat CatK. Further details: method as in PMID 19453281. The conditions noted are these: cited from earlier work.
Where [11] appears, read: printed in the 3 mg/kg dose row.
Setting [12] is: printed in the 10 mg/kg dose row.

These results are taken from publication PMC3878918, “Cathepsin K inhibitors increase distal femoral bone mineral density in rapidly growing rabbits” (BMC Musculoskeletal Disorders, 2013).

For orientation: Cmax means the highest concentration seen after dosing. Usually IC50 stands for the concentration that inhibits the measured activity by half.

The structures appear in SMILES notation. Read-outs that look alike come from different tables or passages of the source. Bounds are passed on as bounds.

Consider `O=P(O)(O)C(Cl)(Cl)P(=O)(O)O` [clodronate], for which the “trabecular bone volume in the proximal tibial metaphysis vs untreated rats” value in series [1] is “higher trabecular bone volume”.

As to `NCCCC(O)(P(=O)(O)O)P(=O)(O)O` [ALN, alendronate, reference compound], in [2] (10 days' treatment, Masson's trichrome), the “histology of distal femoral metaphysis compared to vehicle” value was “increased retention of both calcified cartilage and bone tissue”. The DFBMD in [2] (ALN 50 μg/kg SC once daily) worked out at 277.8 ± 8.4 mg/cm^2; in series [2] (ALN 100 μg/kg SC once daily), 313.7 ± 3.9 mg/cm^2; in [2] (ALN 200 μg/kg SC once daily), 281.7 ± 6.4 mg/cm^2; in series [2] (ALN 500 μg/kg SC once daily) it was 291.2 ± 9.4 mg/cm^2. The “% BMD gain” value in series [2] (ALN 50 μg/kg/day SC) amounted to 15%; in [2] (ALN 100 μg/kg/day SC), 16%; in series [2] (ALN 200 μg/kg/day SC), 16%; in series [2] (ALN 500 μg/kg/day SC), 21%. Also, the “Distal femur BMD” value in series [2] (ALN 100 μg/kg SC positive control in the L-006235 study) came out at 300.5 ± 4.6 mg/cm^2; in series [2] (ALN 100 μg/kg SC positive control in the L-833905 study), 314.0 ± 9.1 mg/cm^2; in [2] (ALN 100 μg/kg SC positive control in the L-873724 study) it was 352.8 ± 9.4 mg/cm^2. The “DFBMD of representative DXA image” value in series [2] (ALN 100 μg/kg/day) came to 361 mg/cm^2. The “distal femoral metaphyseal BMD” value in series [3] was “increase in distal femoral metaphyseal BMD”. In [1] (seven days SC 0.010 mg/kg/d), the trabecular bone volume entry is on record as “increased trabecular bone volume”.

In the case of `CC(C)C[C@H](N[C@@H](c1ccc(-c2ccc(S(C)(=O)=O)cc2)cc1)C(F)(F)F)C(=O)NCC#N` [Compound L-873724], the Cl in series [4] (1 mg/kg dose), in [4] (setting [11]) and in series [4] (setting [12]) was 26 mL/min/kg throughout. For the same compound, the Cmin result in series [4] (1 mg/kg, LOD ~ 1 nM) is given as “<LOD*”; in series [4] (3 mg/kg) it was 28 nM; in [4] (10 mg/kg), 32 nM. The AUC in series [4] (1 mg/kg) is on record as 0.5 μm*hr; in [4] (3 mg/kg), 3.1 μm*hr; in series [4] (10 mg/kg), 7.8 μm*hr. The values for the Cmax in series [4] (1 mg/kg), in [4] (3 mg/kg) and in series [4] (10 mg/kg) were 78 nM, 490 nM and 1370 nM, respectively. Besides, the entries for the “Distal femur BMD” value in series [2] (1 mg/kg oral once daily), in [2] (3 mg/kg oral once daily) and in [2] (10 mg/kg oral once daily) were 301.2 ± 3.7 mg/cm^2, 310.5 ± 6.5 mg/cm^2 and 327.7 ± 7.5 mg/cm^2, respectively. The “increase in DFBMD vs vehicle” value is 9% in series [2] (3 mg/kg oral once daily) and 15% in [2] (10 mg/kg oral once daily). Further, the “fold more potent in the bone resorption assay than L-833905” value (from here on “fold more potent”) in series [5] is “approximately 30 fold”. The figures for the IC50 in series [6] and in [7] were 13 ± 1 nM and 0.8 nM, respectively.

For `CC(C)(F)C[C@H](N[C@@H](c1ccc(-c2ccc(S(C)(=O)=O)cc2)cc1)C(F)(F)F)C(=O)NC1(C#N)CC1` [ODN, odanacatib], the Cl in [4] (1 mg/kg dose) and in series [4] (printed in the 0.3 mg/kg dose row) was 6 mL/min/kg throughout. Moreover, the results for the AUC in series [4] (0.3 mg/kg), in series [4] (1 mg/kg) and in series [4] (3 mg/kg) were 0.7 μm*hr, 2.2 μm*hr and 4.1 μm*hr, respectively. Besides, the Cmin in series [4] (1 mg/kg, LOD ~ 1 nM) was 37 nM; in [4] (3 mg/kg), 88 nM. Besides, the figures for the Cmax in series [4] (1 mg/kg) and in series [4] (3 mg/kg) were 130 nM and 270 nM, respectively. In addition, the IC50 in series [8] is 0.2 nM; in [6] it was 23 ± 6 nM; in [7] it was 1 nM; in series [9] it was 108 nM; in [10] it was 112 nM. Besides, the “increase in DFBMD vs vehicle” value in series [2] (0.3 mg/kg oral once daily) stood at 7%; in [2] (1 mg/kg oral once daily), 11%; in series [2] (3 mg/kg oral once daily) it was 19%. For the same compound, in series [2] (ODN 3 mg/kg), the “DFBMD of representative DXA image” value was 388 mg/cm^2. The “fold more potent” value in series [5] is recorded as “approximately 30 fold”. The “fold less potent versus mouse CatK than versus human and rabbit CatK” value in series [9] was “more than 500 fold”. Further, the “fold less potent versus rat CatK than versus human and rabbit CatK” value in series [10] is reported as “more than 500 fold”.

In the case of `CN1CCN(c2nc(-c3ccc(C(=O)NC4(C(=O)NCC#N)CCCCC4)cc3)cs2)CC1` [Compound L-006235], the Cl in series [4] (1 mg/kg dose), in series [4] (setting [11]) and in series [4] (setting [12]) was 113 mL/min/kg each time. For the same compound, the Cmin in series [4] (1 mg/kg, LOD ~ 1 nM) is recorded as 9 nM; in [4] (3 mg/kg), 15 nM; in series [4] (10 mg/kg) it was 8 nM. In addition, the results for the AUC in series [4] (1 mg/kg), in [4] (3 mg/kg) and in series [4] (10 mg/kg) were 0.3 μm*hr, 1.0 μm*hr and 5.0 μm*hr, respectively. In addition, the Cmax was 74 nM in [4] (1 mg/kg), 337 nM in series [4] (3 mg/kg) and 2440 nM in [4] (10 mg/kg). Besides, the “increase in DFBMD vs vehicle” value in series [2] (1 mg/kg oral once daily) is given as 7%; in [2] (3 mg/kg oral once daily), 11%; in series [2] (10 mg/kg oral once daily) it was 15%. Moreover, the “Distal femur BMD” value in [2] (1 mg/kg oral once daily) is listed as 281.7 ± 4.9 mg/cm^2; in [2] (3 mg/kg oral once daily), 293.5 ± 2.8 mg/cm^2; in [2] (10 mg/kg oral once daily), 303.5 ± 5.4 mg/cm^2. Moreover, the “fold more potent” value in series [5] is reported as “approximately 30 fold”. For the same compound, the IC50 in series [6] was 5 ± 1 nM; in series [7], 0.5 nM.

As to `CC(C)C[C@@H](C(=O)NCC#N)c1cccc(-c2ccc(N3CCNCC3)cc2)c1` [Compound L-833905, (R)-N-(cyanomethyl)-4-methyl-2-(4′-(piperazin-1-yl)-[1,1′-biphenyl]-3-yl)pentanamide], in series [4] (10 mg/kg), the Cmin was 29 nM, the AUC was 1.9 μm*hr and the Cmax was 163 nM. Also, in series [4] (30 mg/kg), the Cmin was 60 nM, the AUC is 6.1 μm*hr and the Cmax was 651 nM. Also, in series [2] (10 mg/kg oral once daily), the “increase in DFBMD vs vehicle” value stood at 3% and the “Distal femur BMD” value is 282.5 ± 5.5 mg/cm^2. Further, in series [2] (30 mg/kg oral once daily), the “increase in DFBMD vs vehicle” value turned out to be 10% and the “Distal femur BMD” value is recorded as 301.8 ± 4.9 mg/cm^2. Further, the “fold less potent inhibitor of CatK than L-006235, L-873724 and ODN” value in series [5] (from the EIA and functional cell-based assay) was 6–30 fold. Besides, in series [6], the IC50 was 149 ± 20 nM. For the same compound, the IC50 in [7] was 33 ± 2 nM.

As for `CC(O)(P(=O)(O)O)P(=O)(O)O` [etidronate], the “trabecular bone volume in the proximal tibial metaphysis vs untreated rats” value in series [1] is given as “higher trabecular bone volume”.
